Assay results: patent publication US4416885A, “Use of isopropylaminopyrimidine in the chemotherapy of muscular dystrophy, myopathy and myotonia” (priority 1982, dated 1983)

Assays:
[1] = tested on: Dystrophic monocytes; experiment: Effect on human monocytes in culture (flat cells), dystrophic; type: cell-based; details: dystrophic monocyte + dibutryl c-GMP, one individual; untreated dystrophic 36.2%; preliminary
[2] = tested on: dystrophic New Hampshire chickens, line 413; experiment: Overall assessment of chemotherapy over all parameters measured; type: in vivo, chicken; details: 413 chickens, after 28 days of dilantin injections
Method: The compound IAPP was tested on dystrophic New Hampshire chickens, line 413, and Imperial College (London, England) sub-line of the original Davis, University of California strain. The chickens are homozygous for muscular dystrophy, the disease appearing with 100% incidence.
Chemotherapy was assessed by application of seven different parameters: physical tests of muscular disability, namely the flip test and wing apposition (W.A.) measurements; biochemical assays of serum and muscle enzume levels of creatine phosphokinase (CPK), pyruvate kinase (PK) and acetylcholinesterase (AChE); and histological comparisons of treated and untreated muscle. Toxicity studies (weight loss, etc.) were also used. A very comprehensive profile of the drug was thus obtained which related to all the known, highly characteristic features of the disease which are applicable to both the animal model and the human. […]

[3] = tested on: dystrophic 413 muscle explants; experiment: Microtubule complexes in muscle explants of injected dystrophic chickens; type: in vivo, chicken; details: dystrophic 413 chickens, 28 days of dilantin injections
Source text: Essentially, these experiments were divided into three subgroups, taken from the previous Table:
413A, 413B, 412A, 412B: All were sacrificed after 4 injections and muscle explants placed in culture.
413C, 412C: All were sacrificed after 8 injections and muscle explants were placed in culture.
413D, 412D: All were sacrificed after 10 injections and muscle explants placed in culture.
All explants were placed in CMRL culture medium containing 5% horse serum, 15% fetal bovine serum and 1% antibiotics and allowed to grow for 5-7 days before being fixed and observed for the presence or absence of microtubules. No IAPP was added to the culture medium during the 5-7 days in culture.

| Compound | % Flat Cells [1] [%] | Appearance of dystrophic chickens [2] | Correction of microtubule defect in explants [3] |
| --- | --- | --- | --- |
| CCCC(=O)Nc1nc2c(ncn2[C@@H]2O[C@@H]3COP(=O)(O)O[C@H]3[C@H]2OC(=O)CCC)c(=O)[nH]1 [dibutryl c-GMP, reference compound] | 52.0 | – | – |
| O=C1NC(=O)C(c2ccccc2)(c2ccccc2)N1 [dilantin, reference compound] | – | Some dystrophic 413 chickens appeared normal | did not have their microtubule defect corrected |
